Data: patent US20120121591A1 (priority 2009, published 2012)

Assays:
Type in all cases: cell-based
[1] = target: hKv1.3 (Homo sapiens, UniProt P22001); assay: cell-based; conditions: Kv1.3 (IWQ) IC50 (nM, Avg)
[2] = tested on: IFN-g secretion from T cells in human whole blood; conditions: read-out: WB (IFNg) IC50 (nM, Avg)
[3] = tested on: IL-2 secretion from T cells in human whole blood; conditions: read-out: WB (IL-2) IC50 (nM, Avg)

Chain of hKv1.3 (P22001 whole entry): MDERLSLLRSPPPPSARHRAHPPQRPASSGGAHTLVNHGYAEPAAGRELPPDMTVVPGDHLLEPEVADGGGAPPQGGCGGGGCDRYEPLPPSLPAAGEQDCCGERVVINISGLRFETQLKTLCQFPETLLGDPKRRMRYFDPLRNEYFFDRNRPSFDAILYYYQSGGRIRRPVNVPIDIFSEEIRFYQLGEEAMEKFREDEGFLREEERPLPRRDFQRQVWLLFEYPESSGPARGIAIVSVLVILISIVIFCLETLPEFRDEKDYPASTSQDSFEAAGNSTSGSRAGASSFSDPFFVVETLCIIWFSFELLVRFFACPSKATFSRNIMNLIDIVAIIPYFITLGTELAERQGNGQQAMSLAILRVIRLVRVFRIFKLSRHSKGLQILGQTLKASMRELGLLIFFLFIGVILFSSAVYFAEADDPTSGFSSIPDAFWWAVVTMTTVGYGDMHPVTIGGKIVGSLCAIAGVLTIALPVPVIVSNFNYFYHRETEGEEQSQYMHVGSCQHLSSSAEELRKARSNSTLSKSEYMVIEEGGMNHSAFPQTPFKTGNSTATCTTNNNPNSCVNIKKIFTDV

**Q.** With CC[C@H](C)[C@@H]1NC(=O)[C@@H](NC(=O)[C@H](CO)NC(=O)[C@@H](N)CCCNC(=N)N)CSSC[C@@H](C(N)=O)NC(=O)[C@H]([C@@H](C)O)NC(=O)CNC(=O)[C@@H]2CSSC[C@@H]3NC(=O)[C@H](CCCCN)NC(=O)[C@H](Cc4ccccc4)NC(=O)[C@H](C)NC(=O)[C@H]([C@@H](C)O)NC(=O)[C@H](CSSC[C@H](NC(=O)[C@H](Cc4ccccc4)NC(=O)[C@H](CO)NC(=O)[C@H](CC(C)C)NC(=O)[C@H](CCCNC(=N)N)NC(=O)[C@H](Cc4ccc(O)cc4)NC(=O)[C@H](CCCCN)NC(=O)[C@H](C(C)C)NC(=O)[C@H](CO)NC(=O)[C@H](Cc4c[nH]cn4)NC(=O)[C@H](CCCCN)NC3=O)C(=O)N[C@@H](CCCNC(=N)N)C(=O)N[C@@H](CCCCN)C(=O)N[C@@H]([C@@H](C)O)C(=O)N2)NC(=O)[C@H](CCCNC(=N)N)NC(=O)[C@H](CO)NC(=O)[C@H](CCCCN)NC(=O)[C@@H]2CCCN2C(=O)[C@H]([C@@H](C)CC)NC(=O)[C@H]([C@@H](C)O)NC(=O)[C@H](CC(=O)O)NC1=O [[Lys16, VaI21]ShK-amide] as the compound, how does the IC50 [1] read?
**A.** 0.344 nM

**Q.** What about the IC50 [2] of the same compound?
**A.** 6.65 nM

**Q.** And the IC50 [3]?
**A.** 4.8 nM

**Q.** With CC[C@H](C)[C@@H]1NC(=O)[C@@H](NC(=O)[C@H](CO)NC(=O)[C@@H](N)CCCNC(=N)N)CSSC[C@@H](C(=O)O)NC(=O)[C@H]([C@@H](C)O)NC(=O)CNC(=O)[C@@H]2CSSC[C@@H]3NC(=O)[C@H](CCCCN)NC(=O)[C@H](Cc4ccccc4)NC(=O)[C@H](C)NC(=O)[C@H]([C@@H](C)O)NC(=O)[C@H](CSSC[C@H](NC(=O)[C@H](Cc4ccccc4)NC(=O)[C@H](CO)NC(=O)[C@H](CC(C)C)NC(=O)[C@H](CCCNC(=N)N)NC(=O)[C@H](Cc4ccc(O)cc4)NC(=O)[C@H](CCCCN)NC(=O)[C@H](C)NC(=O)[C@H](CO)NC(=O)[C@H](Cc4c[nH]cn4)NC(=O)[C@H](CCCCN)NC3=O)C(=O)N[C@@H](CCCNC(=N)N)C(=O)N[C@@H](CCCCN)C(=O)N[C@@H]([C@@H](C)O)C(=O)N2)NC(=O)[C@H](CCCNC(=N)N)NC(=O)[C@H](CO)NC(=O)[C@H](CCCCN)NC(=O)[C@@H]2CCCN2C(=O)[C@H]([C@@H](C)CC)NC(=O)[C@H]([C@@H](C)O)NC(=O)[C@H](CC(=O)O)NC1=O [[Lys16,A1a21]ShK] as the compound, how does the IC50 [1] read?
**A.** 0.076 nM

**Q.** What about the IC50 [2] of the same compound?
**A.** 1.33 nM

**Q.** What about the IC50 [3] of the same compound?
**A.** 0.872 nM

**Q.** With CC[C@H](C)[C@@H]1NC(=O)[C@@H](NC(=O)[C@H](CO)NC(=O)[C@@H](N)CCCNC(=N)N)CSSC[C@@H](C(=O)O)NC(=O)[C@H]([C@@H](C)O)NC(=O)CNC(=O)[C@@H]2CSSC[C@@H]3NC(=O)[C@H](CCCCN)NC(=O)[C@H](Cc4ccccc4)NC(=O)[C@H](C)NC(=O)[C@H]([C@@H](C)O)NC(=O)[C@H](CSSC[C@H](NC(=O)[C@H](Cc4ccccc4)NC(=O)[C@H](CO)NC(=O)[C@H](CC(C)C)NC(=O)[C@H](CCCNC(=N)N)NC(=O)[C@H](Cc4ccc(O)cc4)NC(=O)[C@H](CCCCN)NC(=O)[C@H](CCSC)NC(=O)[C@H](CO)NC(=O)[C@H](Cc4c[nH]cn4)NC(=O)[C@H](CCCNC(=N)N)NC3=O)C(=O)N[C@@H](CCCNC(=N)N)C(=O)N[C@@H](CCCCN)C(=O)N[C@@H]([C@@H](C)O)C(=O)N2)NC(=O)[C@H](CCCNC(=N)N)NC(=O)[C@H](CO)NC(=O)[C@H](CCCCN)NC(=O)[C@@H]2CCCN2C(=O)[C@H]([C@@H](C)CC)NC(=O)[C@H]([C@@H](C)O)NC(=O)[C@H](CC(=O)O)NC1=O [[Lys16,Arg18]ShK] as the compound, how does the IC50 [1] read?
**A.** 0.425 nM

**Q.** And the IC50 [2]?
**A.** 0.097 nM

**Q.** And the IC50 [3]?
**A.** 0.077 nM

**Q.** For CC[C@H](C)[C@@H]1NC(=O)[C@@H](NC(=O)[C@H](CO)NC(=O)[C@@H](N)CCCNC(=N)N)CSSC[C@@H](C(N)=O)NC(=O)[C@H]([C@@H](C)O)NC(=O)CNC(=O)[C@@H]2CSSC[C@@H]3NC(=O)[C@H](CCCCN)NC(=O)[C@H](Cc4ccccc4)NC(=O)[C@H](C)NC(=O)[C@H]([C@@H](C)O)NC(=O)[C@H](CSSC[C@H](NC(=O)[C@H](Cc4ccccc4)NC(=O)[C@H](CO)NC(=O)[C@H](CC(C)C)NC(=O)[C@H](CCCNC(=N)N)NC(=O)[C@H](Cc4ccc(O)cc4)NC(=O)[C@H](CCCCN)NC(=O)[C@H](CCSC)NC(=O)[C@H](CO)NC(=O)[C@H](Cc4c[nH]cn4)NC(=O)[C@H](CCCCN)NC3=O)C(=O)N[C@@H](CCCNC(=N)N)C(=O)N[C@@H](CCCNC(=N)N)C(=O)N[C@@H]([C@@H](C)O)C(=O)N2)NC(=O)[C@H](CCCNC(=N)N)NC(=O)[C@H](CO)NC(=O)[C@H](CCCCN)NC(=O)[C@@H]2CCCN2C(=O)[C@H]([C@@H](C)CC)NC(=O)[C@H]([C@@H](C)O)NC(=O)[C@H](CC(=O)O)NC1=O [[Lys16,Arg30]ShK-amide], which IC50 [1] is on record?
**A.** 0.129 nM

**Q.** What about the IC50 [2] of the same compound?
**A.** 0.236 nM

**Q.** What about the IC50 [3] of the same compound?
**A.** 0.151 nM

**Q.** What does the source list for CC[C@H](C)[C@@H]1NC(=O)[C@@H](NC(=O)[C@H](CO)NC(=O)[C@@H](N)CCCNC(=N)N)CSSC[C@@H](C(=O)N[C@@H](C)C(=O)O)NC(=O)[C@H]([C@@H](C)O)NC(=O)CNC(=O)[C@@H]2CSSC[C@@H]3NC(=O)[C@H](CCCCN)NC(=O)[C@H](Cc4ccccc4)NC(=O)[C@H](C)NC(=O)[C@H]([C@@H](C)O)NC(=O)[C@H](CSSC[C@H](NC(=O)[C@H](Cc4ccccc4)NC(=O)[C@H](CO)NC(=O)[C@H](CC(C)C)NC(=O)[C@H](CCCNC(=N)N)NC(=O)[C@H](Cc4ccc(O)cc4)NC(=O)[C@H](CCCCN)NC(=O)[C@H](CC(N)=O)NC(=O)[C@H](CO)NC(=O)[C@H](Cc4c[nH]cn4)NC(=O)[C@H](CCCCN)NC3=O)C(=O)N[C@@H](CCCNC(=N)N)C(=O)N[C@@H](CCCCN)C(=O)N[C@@H]([C@@H](C)O)C(=O)N2)NC(=O)[C@H](CCCNC(=N)N)NC(=O)[C@H](CO)NC(=O)[C@H](CCCCN)NC(=O)[C@@H]2CCCN2C(=O)[C@H]([C@@H](C)CC)NC(=O)[C@H]([C@@H](C)O)NC(=O)[C@H](CC(=O)O)NC1=O [[Lys16,Asn21]ShK-Ala]?
**A.** IC50 [1]: 33 nM; IC50 [2]: 0.693 nM; IC50 [3]: 0.891 nM

**Q.** Which IC50 [1] does the source give for CC[C@H](C)[C@@H]1NC(=O)[C@@H](NC(=O)[C@H](CO)NC(=O)[C@@H](N)CCCNC(=N)N)CSSC[C@@H](C(=O)N[C@@H](C)C(=O)O)NC(=O)[C@H]([C@@H](C)O)NC(=O)CNC(=O)[C@@H]2CSSC[C@@H]3NC(=O)[C@H](CCCCN)NC(=O)[C@H](Cc4ccccc4)NC(=O)[C@H](C)NC(=O)[C@H]([C@@H](C)O)NC(=O)[C@H](CSSC[C@H](NC(=O)[C@H](Cc4ccccc4)NC(=O)[C@H](CO)NC(=O)[C@H](CC(C)C)NC(=O)[C@H](CCCNC(=N)N)NC(=O)[C@H](Cc4ccc(O)cc4)NC(=O)[C@H](CCCCN)NC(=O)[C@H](CCC(N)=O)NC(=O)[C@H](CO)NC(=O)[C@H](Cc4c[nH]cn4)NC(=O)[C@H](CCCCN)NC3=O)C(=O)N[C@@H](CCCNC(=N)N)C(=O)N[C@@H](CCCCN)C(=O)N[C@@H]([C@@H](C)O)C(=O)N2)NC(=O)[C@H](CCCNC(=N)N)NC(=O)[C@H](CO)NC(=O)[C@H](CCCCN)NC(=O)[C@@H]2CCCN2C(=O)[C@H]([C@@H](C)CC)NC(=O)[C@H]([C@@H](C)O)NC(=O)[C@H](CC(=O)O)NC1=O [[Lys16,Gln21]ShK-Ala] here?
**A.** 4.01 nM

**Q.** And the IC50 [2]?
**A.** 0.206 nM

**Q.** And the IC50 [3]?
**A.** 0.168 nM
